Publication PMC6742494 (ACS infectious diseases, 2016)
Converted amounts (≈) assume the structure as drawn. “And” between values parts separate entries of the source, which are not always exact repeats. Equal entries are not always repeated.

Assays:
[1] = system: Mtb Haarlem 9 (RIF-resistant); experiment: microbe, parasite or virus in culture; assay type: cell-based; conditions: Mycobacterium tuberculosis
[2] = system: Mtb Beijing 22 (RIF-resistant); experiment: microbe, parasite or virus in culture; assay type: cell-based; conditions: Mycobacterium tuberculosis
Mtb T 27 (INH-resistant) = experiment: microbe, parasite or virus in culture; assay type: cell-based; conditions: Mycobacterium tuberculosis
[3] = system: Mtb H37Rv resistant isolates with mmpL3 mutations; assay type: cell-based, Mycobacterium tuberculosis

Row | Structure (SMILES) | MIC [1] [µg/mL] | MIC [2] [µg/mL] | MIC (Mtb T 27 (INH-resistant)) [µg/mL] | susceptibility of DA5^R and TBL-140^R strains [3] | MIC [3]
1 | FC(F)(F)Oc1ccc(Oc2ccc(CNCCNC3C4CC5CC(C4)CC3C5)cc2)cc1 (centres unmarked) [Compound 8, N^1-adamantan-2-yl-N^2-(4-(4-(trifluoro-methoxy)phenoxy)benzyl)ethane-1,2-diamine] | 1.2 (≈ 2.61 µM) | 1.2 (≈ 2.61 µM) | 0.58 (≈ 1.26 µM) |  | 
2 | CC[C@@H](CO)NCCN[C@@H](CC)CO [EMB, ethambutol] | 1 (≈ 4.89 µM) | 1 (≈ 4.89 µM) | 1 (≈ 4.89 µM) | identical susceptibility as wild-type H37Rv | 
3 | NNC(=O)c1ccncc1 [INH, isoniazid] | 0.025 (≈ 0.182 µM) | 0.025 (≈ 0.182 µM) | > 0.8 | identical susceptibility as wild-type H37Rv | 
4 | CO[C@H]1/C=C/O[C@@]2(C)Oc3c(C)c(O)c4c(O)c(c(/C=N/N5CCN(C)CC5)c(O)c4c3C2=O)NC(=O)/C(C)=C\C=C\[C@H](C)[C@H](O)[C@@H](C)[C@@H](O)[C@@H](C)[C@H](OC(C)=O)[C@@H]1C [RIF, rifampicin] |  |  | 0.0125 (≈ 0.0152 µM) | identical susceptibility as wild-type H37Rv | 
5 | CC(C)=CCC/C(C)=C/CNCCNC1C2CC3CC(C2)CC1C3 (centres unmarked) [SQ109] |  |  |  |  | 6.25 µg/mL and 12.5 µg/mL
